For orientation: Cmax means the peak of the concentration-time curve. As a reminder, the Tmax is the time at which the peak concentration occurs. As a reminder, the Vd is the apparent volume that relates the amount in the body to the concentration in plasma or blood. The solubility is the concentration that dissolves in the medium under given conditions. High values mean a readily soluble substance, low ones a poorly soluble substance.

These results are taken from patent US20260103479A1, “PRODRUGS OF OPICAPONE” (BIAL- PORTELA & CA, S.A., priority 2022, published 2026).

Molecules are shown by their SMILES. ≈ marks a conversion by molar mass, not a printed value.

Data set [1] can be described thus: In vitro stability in potassium phosphate buffer pH 7.4. The format is physicochemical. The following applies: 1 μM, after 0.75 h. On the procedure:
(§1) The stability of 1 μM of compound 1 was assessed in the following fractions: phosphate buffer, human plasma, rat plasma, human liver S9 fraction, rat liver S9 fraction and rat liver homogenates.
(§2) Reaction was initiated by adding of 1 μM of test compound to the desired matrix (plasma, liver homogenate at 0.4 g/mL or S9 fraction at 1 mg/mL, respectively), with a final volume of 350 μL. At the following time points 0, 5, 15, 30, 45, 60 min, 50 μL of sample is taken and precipitated with 200 μL of acetonitrile 1% formic acid containing the internal standard (opicapone ^13C6) at 1 μM. Samples were centrifuged at 20,000 g at 4° C. for 10 min, and then analysed by LC-MS/MS using a bioanalytical method previously developed in-house.
Solutions of the test compounds were prepared at 10 μM using 50 mM potassium phosphate buffer (KPB) at pH 7.4, by adding 1 μL of compound stock at 10 mM to 999 μL KPB 50 mM. […]
(§3) The stability of 1 μM of compound 4 was assessed in the following fractions: phosphate buffer, human plasma, rat plasma, human liver S9 fraction, rat liver S9 fraction and rat liver homogenates.
(§4) Reaction was initiated by adding 1 μM of test compound to the desired matrix (plasma or S9 fraction at 1 mg/mL), with a final volume of 250 μL. […] Samples were centrifuged at 20,000 g at 4° C. for 10 min, and then analysed by LC-MS/MS using bioanalytical methods previously developed in-house. […]

Data set [2] is described as follows: In vitro stability in rat plasma. The settings on record: 1 μM; after 0.75 h. The data set is classed as in vitro ADME. On the procedure:
as §1, §2, §3, §4

Data set [3] is described as follows: In vitro stability in human liver S9 fraction. The format is in vitro ADME. The settings on record: 1 μM; S9 1 mg/mL; after 0.75 h. Here is the method:
as §1, §2, §3, §4

A short description of data set [4]: Oral pharmacokinetics in rats. The format is in vivo, male Wistar rats. The settings on record: p.o. 3 mg/kg; for Cmax / Tmax / AUC(0-t): male, Wistar, po, rat plasma, analyte prodrug; for AUC(0-t): read-out: AUClast of prodrug; for opicapone pharmacokinetic profile after oral prodrug (comparison): FIG. 3b. Here is the method: The pharmacokinetic properties of compounds 1 and 4 compared to micronized crystalline opicapone were assessed by oral administrations to 4 male Wistar rats (3 mg/kg; 0.2% HPMC).
(§5) During the studies, blood was collected at different time points, from tail vein, spun at 1500×g in a refrigerated centrifuge (4° C.) for 15 min, and the plasma obtained was stored at −80° C. until further analysis. The plasma samples collected were analysed for compound 1, compound 4 and opicapone exposure. The bioanalysis involved the use of LC-MS/MS after plasma precipitation.

Data set [5] is described as follows: Intravenous pharmacokinetics in rats. The data set is classed as in vivo, male Wistar rats. The settings on record: i.v. 1 mg/kg; for opicapone pharmacokinetic profile after intravenous prodrug (comparison): FIG. 4b; for AUC(0-t): read-out: AUClast of prodrug; for half-life: read-out: t1/2 of prodrug (converted); for Vd / clearance: plasma; for clearance: read-out: CL of prodrug (converted). Here is the method: The pharmacokinetic properties of compounds 1 and 4 compared to micronized crystalline opicapone were assessed by intravenous injection to 3 male Wistar rats (1 mg/kg; DMSO:20% HPBCD (1:9).
During the studies, blood was collected at different time points, from jugular vein, spun at 1500×g in a refrigerated centrifuge (4° C.) for 15 min, and the plasma obtained was stored at −80° C. until further analysis. The plasma samples collected were analysed for compound 1, compound 4 and opicapone exposure. The bioanalysis involved the use of LC-MS/MS after plasma precipitation.

A short description of data set [6]: Subcutaneous pharmacokinetics in rats. The format is in vivo, male Wistar rats. The settings on record: s.c. 3 mg/kg; for Cmax / Tmax / AUC(0-t): male, Wistar, sc, rat plasma, analyte prodrug; for AUC(0-t): read-out: AUClast of prodrug; for irritation at the injection site: DMSO:20% HPBCD (1:9), rat. On the procedure:
The pharmacokinetic properties of compounds 1 and 4 were assessed by subcutaneous injection to 4 male Wistar rats (3 mg/kg; DMSO:20% HPBCD (1:9)).
as §5

The nature of data set [7]: physchem. The following applies: water, thermodynamic from solid.
Method: (§6) The solubility studies were completed at room temperature. For the determination of the solubility increasing amounts of distilled water was added to 5 mg of the test sample until its complete dissolution of the product observed by naked eye.
Data set [8] in a line: Long-term stability studies in the solid state. The format is physicochemical.
For data set [9], the system named is L-DOPA metabolism. Kind of data set: Subcutaneous pharmacodynamics: impact on L-DOPA and 3-OMD plasma levels. The data set is classed as in vivo, male Wistar rats. The following applies: s.c. 3 mg/kg with 12 mg/kg L-DOPA plus 3 mg/kg benserazide vs without compound; rat. Here is the method: As proof-of-concept, the effects of compound 4 on L-DOPA metabolism was evaluated in 4 male Wistar rats. Animals were subcutaneously injected with a single formulation (in DMSO:PEG 400:30% SBEBCD (1:2:2)) containing 12 mg/kg of L-DOPA plus 3 mg/kg of benserazide with or without 3 mg/kg of compound 4. Plasma samples were collected as described above and analyzed for levels of L-DOPA and its metabolite 3-O-methyldopa (3-OMD).

Data set [10] is described as follows: Aqueous solubility in distilled (pure) water at room temperature. The following applies: thermodynamic from solid.
Method: as §6
Where [11] appears, read: male, Wistar, iv, rat plasma, analyte prodrug.
The mark [12] stands for this setting: male, Wistar, iv, rat, analyte prodrug.

On to `Cc1c(Cl)c(C)[n+]([O-])c(Cl)c1-c1noc(-c2cc(OP(=O)(O)O)c(O)c([N+](=O)[O-])c2)n1` [Compound 1, 2,5-dichloro-3-(5-(4-hydroxy-3-nitro-5-(phosphonooxy)phenyl)-1,2,4-oxadiazol-3-yl)-4,6-dimethylpyridine 1-oxide], for which the stability in buffer result in [1] was “stable”. The “stability in rat plasma” value in data set [2] was “stable”. Moreover, the “stability in human liver S9 fraction” value in data set [3] is recorded as “stable”. Moreover, in data set [4], the Cmax is 146 ng/mL, the Tmax was 30 min and the AUC(0-t) came to 417 ng·h/mL. The “oral pharmacokinetic properties of the prodrug (comparison)” value in [4] (rat, FIG. 3a) was “improved pharmacokinetic properties compared to compound 4”. Also, the “opicapone pharmacokinetic profile after oral prodrug (comparison)” value in data set [4] (rat) was “comparable to opicapone itself”. For the same molecule, in [5] (rat, FIG. 4a), the “intravenous pharmacokinetic properties of the prodrug (comparison)” value is “improved pharmacokinetic properties compared to compound 4”. Further, the “opicapone pharmacokinetic profile after intravenous prodrug (comparison)” value in data set [5] (rat) was “comparable to opicapone itself”. In data set [5] (setting [11]), the C0 stood at 29400 ng/mL, the AUC(0-t) worked out at 30700 ng·h/mL and the half-life was 156 min. Further, in data set [5] (setting [12]), the Vd was found to be 0.123 L/kg and the clearance is 0.643 mL/min/kg. Besides, in data set [6], the Cmax was 7770 ng/mL, the Tmax worked out at 60 min, the AUC(0-t) worked out at 15500 ng·h/mL and the “irritation at the injection site” value is on record as “low levels of irritation”. In data set [7], this molecule yielded a solubility of 6000 µg/mL (≈ 12.2 mM).

Consider `Cc1c(Cl)c(C)[n+]([O-])c(Cl)c1-c1noc(-c2cc(OCOP(=O)(O)O)c(O)c([N+](=O)[O-])c2)n1` [Compound 4, 2,5-dichloro-3-(5-(4-hydroxy-3-nitro-5-((phosphonooxy)methoxy)phenyl)-1,2,4-oxadiazol-3-yl)-4,6-dimethylpyridine 1-oxide], for which the stability in buffer result in [1] is on record as “stable”. Further, in data set [2], the “stability in rat plasma” value is on record as “stable”. For the same molecule, the “stability in human liver S9 fraction” value in data set [3] is reported as “stable”. In addition, in [8], the “long-term stability in the solid state” value is on record as “particularly stable”. In data set [4], the Cmax is 32.5 ng/mL, the Tmax came out at 30 min and the AUC(0-t) came out at 26.5 ng·h/mL. Further, the “opicapone pharmacokinetic profile after oral prodrug (comparison)” value in data set [4] (rat) is given as “worse oral pharmacokinetic parameters”. The “opicapone pharmacokinetic profile after intravenous prodrug (comparison)” value in data set [5] (rat) was “worse intravenous pharmacokinetic parameters”. Also, in data set [5] (setting [11]), the C0 amounted to 21900 ng/mL, the time of peak concentration (Tmax) came to 4.8 min, the AUC(0-t) was 4990 ng·h/mL and the half-life is 174 min. Further, in data set [5] (setting [12]), the Vd is 1.99 L/kg and the clearance is 3.58 mL/min/kg. Also, in data set [6], the Cmax was 3140 ng/mL, the Tmax stood at 30 min, the AUC(0-t) was 9660 ng·h/mL and the “irritation at the injection site” value is “low levels of irritation”. In addition, in [9], the “increase in the AUClast of circulating L-DOPA” value is recorded as 1.7 fold and the “levels of L-DOPA metabolite 3-OMD” value is listed as “decrease”. In data set [10], this molecule had a solubility of over 500 µg/mL.
